Read-outs that look alike come from different tables or passages of the source.
How the values were obtained:
Assay in all cases: Kinase profiling in a biochemical assay panel (mobility shift assays and ELISA), %-inhibition at 1 μM; selectivity entropy
[1] = target: panel of more than 300 wild-type and mutant kinases (313 kinase panel) (Homo sapiens, UniProt Q9UBS0)
[2] = target: panel of more than 300 wild-type and mutant kinases (313 kinase panel) (Homo sapiens, UniProt P07948)
[3] = target: panel of more than 300 wild-type and mutant kinases (313 kinase panel) (Homo sapiens, UniProt P10721, T670I)
[4] = target: panel of more than 300 wild-type and mutant kinases (313 kinase panel) (Homo sapiens, UniProt P17252)
[5] = target: panel of more than 300 wild-type and mutant kinases (313 kinase panel) (Homo sapiens, UniProt P22455)
[6] = target: panel of more than 300 wild-type and mutant kinases (313 kinase panel) (Homo sapiens, UniProt P36894)
[7] = target: panel of more than 300 wild-type and mutant kinases (313 kinase panel) (Homo sapiens, UniProt Q16620)
[8] = target: T1, panel of more than 300 wild-type and mutant kinases (313 kinase panel) (Homo sapiens, UniProt Q8TD19)
T1 sequence (Q8TD19 1-979): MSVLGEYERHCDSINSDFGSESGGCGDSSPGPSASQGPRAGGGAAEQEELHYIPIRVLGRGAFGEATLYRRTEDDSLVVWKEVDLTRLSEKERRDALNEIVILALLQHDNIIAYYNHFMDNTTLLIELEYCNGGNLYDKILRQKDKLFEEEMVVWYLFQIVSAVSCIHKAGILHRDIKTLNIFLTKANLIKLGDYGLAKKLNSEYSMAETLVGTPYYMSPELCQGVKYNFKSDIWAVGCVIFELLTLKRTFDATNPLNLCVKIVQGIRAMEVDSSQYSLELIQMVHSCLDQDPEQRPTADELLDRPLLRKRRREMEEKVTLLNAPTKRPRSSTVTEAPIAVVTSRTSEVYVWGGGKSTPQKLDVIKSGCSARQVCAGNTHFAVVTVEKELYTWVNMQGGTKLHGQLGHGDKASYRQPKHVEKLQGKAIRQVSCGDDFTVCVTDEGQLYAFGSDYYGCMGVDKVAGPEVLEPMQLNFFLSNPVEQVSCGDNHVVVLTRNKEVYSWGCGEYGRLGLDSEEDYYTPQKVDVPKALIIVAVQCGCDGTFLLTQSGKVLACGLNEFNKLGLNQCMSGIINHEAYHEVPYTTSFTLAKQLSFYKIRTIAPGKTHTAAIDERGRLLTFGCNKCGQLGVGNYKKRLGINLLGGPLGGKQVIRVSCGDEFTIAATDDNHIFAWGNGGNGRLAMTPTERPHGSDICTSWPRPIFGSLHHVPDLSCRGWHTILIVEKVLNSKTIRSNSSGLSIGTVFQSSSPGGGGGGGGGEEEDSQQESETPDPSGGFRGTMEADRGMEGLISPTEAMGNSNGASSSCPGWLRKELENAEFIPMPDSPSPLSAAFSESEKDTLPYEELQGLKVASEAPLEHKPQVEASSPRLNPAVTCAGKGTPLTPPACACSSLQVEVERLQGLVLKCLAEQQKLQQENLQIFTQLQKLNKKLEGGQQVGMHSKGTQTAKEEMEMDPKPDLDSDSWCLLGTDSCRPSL

[9] = target: panel of more than 300 wild-type and mutant kinases (313 kinase panel) (Homo sapiens, UniProt P49841)
[10] = target: panel of more than 300 wild-type and mutant kinases (313 kinase panel) (Homo sapiens, UniProt Q15375)
[11] = target: T2, panel of more than 300 wild-type and mutant kinases (313 kinase panel) (Homo sapiens, UniProt Q96L34)
T2 sequence (Q96L34 1-752): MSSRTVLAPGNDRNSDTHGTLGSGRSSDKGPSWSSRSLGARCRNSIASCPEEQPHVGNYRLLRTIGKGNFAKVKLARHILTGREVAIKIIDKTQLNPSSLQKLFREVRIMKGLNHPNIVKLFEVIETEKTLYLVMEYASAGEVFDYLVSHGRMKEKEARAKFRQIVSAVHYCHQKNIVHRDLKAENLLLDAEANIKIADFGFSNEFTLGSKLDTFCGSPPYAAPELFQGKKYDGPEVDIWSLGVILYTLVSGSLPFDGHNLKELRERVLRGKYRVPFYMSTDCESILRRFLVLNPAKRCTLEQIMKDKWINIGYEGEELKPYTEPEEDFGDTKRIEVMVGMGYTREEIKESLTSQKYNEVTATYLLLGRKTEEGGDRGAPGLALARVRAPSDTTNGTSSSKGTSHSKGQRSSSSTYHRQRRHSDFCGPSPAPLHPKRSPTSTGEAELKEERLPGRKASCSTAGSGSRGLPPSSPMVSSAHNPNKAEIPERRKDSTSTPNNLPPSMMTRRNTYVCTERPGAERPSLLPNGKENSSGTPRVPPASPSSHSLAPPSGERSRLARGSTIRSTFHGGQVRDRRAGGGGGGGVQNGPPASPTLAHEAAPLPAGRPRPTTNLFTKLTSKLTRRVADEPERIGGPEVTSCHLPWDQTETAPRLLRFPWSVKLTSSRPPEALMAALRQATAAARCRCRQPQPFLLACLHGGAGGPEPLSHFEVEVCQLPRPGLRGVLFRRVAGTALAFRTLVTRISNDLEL

[12] = kinase KIT(T670I), compound at 1 μM

panel of more than 300 wild-type and mutant kinases (313 kinase panel) (Homo sapiens, UniProt Q15375), sequence (Q15375 28-998, change not shown): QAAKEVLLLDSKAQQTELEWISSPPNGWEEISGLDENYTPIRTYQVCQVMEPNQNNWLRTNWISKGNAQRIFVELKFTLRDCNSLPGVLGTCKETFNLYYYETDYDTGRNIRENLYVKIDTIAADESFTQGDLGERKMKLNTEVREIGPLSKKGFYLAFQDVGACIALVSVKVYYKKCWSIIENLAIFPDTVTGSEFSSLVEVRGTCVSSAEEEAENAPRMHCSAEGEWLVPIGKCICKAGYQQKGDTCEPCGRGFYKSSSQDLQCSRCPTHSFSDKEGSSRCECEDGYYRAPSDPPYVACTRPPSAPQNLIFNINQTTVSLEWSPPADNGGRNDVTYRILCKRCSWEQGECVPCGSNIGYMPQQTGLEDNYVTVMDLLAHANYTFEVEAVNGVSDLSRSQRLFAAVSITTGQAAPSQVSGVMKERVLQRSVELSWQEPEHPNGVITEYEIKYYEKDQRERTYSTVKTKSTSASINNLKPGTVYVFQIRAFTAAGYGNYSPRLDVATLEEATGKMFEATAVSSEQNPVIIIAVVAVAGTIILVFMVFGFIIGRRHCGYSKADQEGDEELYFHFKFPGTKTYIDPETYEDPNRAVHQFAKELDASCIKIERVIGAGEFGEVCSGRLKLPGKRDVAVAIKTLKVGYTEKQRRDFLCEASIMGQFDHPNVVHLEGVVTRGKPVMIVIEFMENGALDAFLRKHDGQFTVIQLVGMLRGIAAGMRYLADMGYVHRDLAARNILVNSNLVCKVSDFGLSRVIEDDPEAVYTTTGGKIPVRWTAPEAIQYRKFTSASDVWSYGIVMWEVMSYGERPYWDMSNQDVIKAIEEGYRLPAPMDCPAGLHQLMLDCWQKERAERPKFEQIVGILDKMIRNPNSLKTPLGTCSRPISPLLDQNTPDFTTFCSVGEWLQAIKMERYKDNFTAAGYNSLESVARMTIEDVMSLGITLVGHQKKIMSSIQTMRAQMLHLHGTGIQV
panel of more than 300 wild-type and mutant kinases (313 kinase panel) (Homo sapiens, UniProt P10721, T670I), sequence (P10721 26-976 T670I): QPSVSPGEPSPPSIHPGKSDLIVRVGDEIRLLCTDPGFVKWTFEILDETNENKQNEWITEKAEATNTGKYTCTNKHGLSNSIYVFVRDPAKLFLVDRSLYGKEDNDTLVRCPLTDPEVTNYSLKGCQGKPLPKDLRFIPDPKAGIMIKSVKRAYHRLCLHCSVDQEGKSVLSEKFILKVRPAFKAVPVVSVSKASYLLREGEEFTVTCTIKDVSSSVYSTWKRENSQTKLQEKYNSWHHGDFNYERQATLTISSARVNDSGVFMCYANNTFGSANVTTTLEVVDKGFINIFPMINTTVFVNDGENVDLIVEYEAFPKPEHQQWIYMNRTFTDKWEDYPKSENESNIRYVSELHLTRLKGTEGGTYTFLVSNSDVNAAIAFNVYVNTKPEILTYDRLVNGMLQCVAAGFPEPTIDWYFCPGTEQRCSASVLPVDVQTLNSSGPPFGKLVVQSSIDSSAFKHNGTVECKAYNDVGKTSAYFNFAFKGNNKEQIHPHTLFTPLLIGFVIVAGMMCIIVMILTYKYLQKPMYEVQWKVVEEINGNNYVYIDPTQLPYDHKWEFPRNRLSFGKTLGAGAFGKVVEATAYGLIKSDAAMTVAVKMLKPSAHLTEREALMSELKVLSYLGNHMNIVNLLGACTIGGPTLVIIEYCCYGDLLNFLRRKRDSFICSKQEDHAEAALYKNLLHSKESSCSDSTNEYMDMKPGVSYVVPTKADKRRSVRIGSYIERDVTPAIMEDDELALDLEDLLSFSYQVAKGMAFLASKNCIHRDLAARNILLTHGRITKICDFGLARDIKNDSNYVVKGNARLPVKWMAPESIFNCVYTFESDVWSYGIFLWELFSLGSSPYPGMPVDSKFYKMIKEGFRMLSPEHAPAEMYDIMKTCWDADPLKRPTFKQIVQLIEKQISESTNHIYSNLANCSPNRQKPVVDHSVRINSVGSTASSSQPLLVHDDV

Row | SMILES | %-inhibition of p70S6Kβ ([1]; kinase p70S6Kβ, 1 μM) [%] | %-inhibition of LYNa ([2]; kinase LYNa, compound at 1 μM) [%] | %-inhibition of KIT(T670I) [3, 12] [%] | %-inhibition of PKCα ([4]; kinase PKCα, 1 μM) [%] | %-inhibition of FGFR4 ([5]; kinase FGFR4, compound at 1 μM) [%] | %-inhibition, BMPR1A ([6]; kinase BMPR1A, 1 μM compound) [%] | %-inhibition of TRKB ([7]; kinase TRKB, 1 μM) [%] | %-inhibition of GSK3β ([9]; kinase GSK3β, compound at 1 μM) [%] | %-inhibition of EPHA7 ([10]; kinase EPHA7, compound at 1 μM) [%] | %-inhibition of NEK9 ([8]; kinase NEK9, 1 μM) [%] | %-inhibition of MARK4 ([11]; kinase MARK4, compound at 1 μM) [%] | further results
1 | CN(C)C/C=C/C(=O)Nc1cc2c(Nc3ccc(F)c(Cl)c3)ncnc2cc1O[C@H]1CCOC1 [afatinib] | 3.42 | – | – | – | – | – | – | – | – | – | – | –
2 | COc1cc(Nc2c(C#N)cnc3cc(OCCCN4CCN(C)CC4)c(OC)cc23)c(Cl)cc1Cl [bosutinib] | – | 93 | 7 | 54 | 2.67 | 1.74 | 62 | – | – | – | – | %-inhibition of NEK9 ([8]; 1 µM): -4.25%
3 | COc1cc2nccc(Oc3ccc(NC(=O)C4(C(=O)Nc5ccc(F)cc5)CC4)cc3)c2cc1OC [cabozantinib] | -3.52 | 100 | 100 | -8.47 | 8 | 2.27 | – | -3.51 | 99 | 1.26 | -9 | –
4 | C[C@@H](Oc1cc(-c2cnn(C3CCNCC3)c2)cnc1N)c1c(Cl)ccc(F)c1Cl [crizotinib] | 6 | 42 | 64 | -8.47 | 0 | 41 | 102 | -2.11 | – | 57 | 51 | –
5 | CC(C)(C)c1nc(-c2cccc(NS(=O)(=O)c3c(F)cccc3F)c2F)c(-c2ccnc(N)n2)s1 [dabrafenib] | -0.554 | – | 1.7 | – | 19 | 17 | 86 | – | 13 | 101 | -27 | –
6 | C#Cc1cccc(Nc2ncnc3cc(OCCOC)c(OCCOC)cc23)c1 [erlotinib] | – | – | – | – | – | – | – | – | – | – | – | %-inhibition of LYNa ([2]; 1 µM): 64%; %-inhibition of KIT(T670I) ([3]; 1 µM): 14%; %-inhibition of PKCα ([4]; 1 µM): 8%; %-inhibition of FGFR4 ([5]; 1 µM): 6%; %-inhibition, BMPR1A [6]: 12%; %-inhibition of GSK3β ([9]; 1 µM): -4.63%; %-inhibition of EPHA7 ([10]; 1 µM): 46%; %-inhibition of TRKB ([7]; 1 µM): 0.183%; %-inhibition of NEK9 ([8]; 1 µM): 7%; %-inhibition of MARK4 ([11]; 1 µM): 14%; %-inhibition of p70S6Kβ ([1]; 1 µM): 13%
7 | CO[C@H]1C[C@@H]2CC[C@@H](C)[C@@](O)(O2)C(=O)C(=O)N2CCCC[C@H]2C(=O)O[C@H]([C@H](C)C[C@@H]2CC[C@@H](OCCO)[C@H](OC)C2)CC(=O)[C@H](C)/C=C(\C)[C@@H](O)[C@@H](OC)C(=O)[C@H](C)C[C@H](C)/C=C/C=C/C=C/1C [everolimus] | -11 | -1.27 | -2.56 | -11 | -7.59 | -3.21 | -0.542 | -6 | -4 | -11 | -27 | –
8 | O=S(=O)(c1cccc2cnccc12)N1CCCNCC1 [fasudil] | 37 | -1.61 | 0.568 | – | – | -10 | -2.66 | -8 | -5 | -3 | -21 | –
9 | CS(=O)(=O)CCNCc1ccc(-c2ccc3ncnc(Nc4ccc(OCc5cccc(F)c5)c(Cl)c4)c3c2)o1 [lapatinib] | 8 | – | – | 1 | 0.821 | – | -10 | -10 | 6.56 | – | 10 | %-inhibition of LYNa ([2]; 1 µM): 9%; %-inhibition of KIT(T670I) ([3]; 1 µM): 0%; %-inhibition, BMPR1A [6]: 7.37%
10 | Cc1ccc(Nc2nccc(N(C)c3ccc4c(C)n(C)nc4c3)n2)cc1S(N)(=O)=O [pazopanib] | 1.69 | 84 | – | 6 | – | -1.7 | – | – | 12 | 3.59 | 9 | %-inhibition of KIT(T670I) ([3]; 1 µM): 68%
11 | Cc1ccc(C(=O)Nc2ccc(CN3CCN(C)CC3)c(C(F)(F)F)c2)cc1C#Cc1cnc2cccnn12 [ponatinib] | 78 | 100 | – | -3.29 | 98 | 6.48 | 100 | – | – | 17 | -2.58 | –
12 | CCN(CC)CCNC(=O)c1c(C)[nH]c(/C=C2\C(=O)Nc3ccc(F)cc32)c1C [sunitinib] | – | – | – | – | – | – | – | – | – | – | 92 | –
13 | COc1cc2c(Nc3ccc(Br)cc3F)ncnc2cc1OCC1CCN(C)CC1 [vandetanib] | 2.58 | 93 | – | -0.27 | 31 | 46 | 26 | -3.71 | 81 | -7 | 2.39 | –
